Experimental data reported in publication PMC4047164 (Biochimica et biophysica acta, 2014).
Values after ≈ are worked out from the molar mass of the structure shown. Read-outs that look alike come from different tables or passages of the source.

Tests used:
S. aureus cells = experiment: Membrane potential of intact cells by DisC3; type: cell-based
S. aureus [1] = experiment: Drug susceptibility determination; type: cell-based; settings: Staphylococcus aureus, 20 h
S. aureus [2] = settings: cited from earlier work
NdhC [3] = biological target: T1, NdhC (Staphylococcus aureus, UniProt Q2YWP9); experiment: Inhibition of purified NdhC NADH dehydrogenase activity with DMN in detergent; type: biochemical, S. aureus; settings: read-out: % of Inhibition by 50 μM phenothiazines, NdhC, DMN
[4] = test system: inverted membrane vesicles from E. coli; type: biochemical
[5] = test system: inverted membrane vesicles from E. coli; type: biochemical; settings: NADH-energized vesicles
S. aureus membranes = experiment: NADH-driven respiration; type: biochemical; settings: for Inhibition of NADH-dependent oxygen consumption: 50 μM compound, membranes ∼ 200 μg/ml
NdhF [6] = biological target: T2, NdhF (Staphylococcus aureus, UniProt Q2FZW0); experiment: biochemical; settings: read-out: % of Inhibition by 50 μM phenothiazines, NdhF, DMN
NdhF [7] = biological target: T2, NdhF; experiment: biochemical; settings: read-out: % of Inhibition by 50 μM phenothiazines, NdhF, Q8
NdhC [8] = biological target: T1, NdhC; experiment: biochemical; design: species or system S. aureus; settings: read-out: % of Inhibition by 50 μM phenothiazines, NdhC, Q8
[9] = test system: isolated rat liver mitochondria; settings: cited from earlier work
[10] = control agents, Figure S5, concentration not given
[11] = Figure 5 legend, concentration not given

T1 sequence (Q2YWP9 whole entry): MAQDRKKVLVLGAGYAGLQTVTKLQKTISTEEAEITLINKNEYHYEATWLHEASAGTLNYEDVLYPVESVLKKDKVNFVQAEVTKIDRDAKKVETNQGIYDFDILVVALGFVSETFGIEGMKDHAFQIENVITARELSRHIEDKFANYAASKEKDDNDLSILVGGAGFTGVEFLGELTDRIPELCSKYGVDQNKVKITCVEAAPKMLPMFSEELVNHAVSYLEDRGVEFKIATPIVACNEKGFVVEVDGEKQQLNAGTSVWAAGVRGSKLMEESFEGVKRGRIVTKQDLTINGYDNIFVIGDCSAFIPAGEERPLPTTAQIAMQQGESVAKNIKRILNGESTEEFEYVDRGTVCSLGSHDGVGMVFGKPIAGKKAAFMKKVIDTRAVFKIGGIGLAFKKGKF

Structure (SMILES)	MIC (S. aureus [1]) [µM]	reported MIC values for inhibition of growth (S. aureus [2]) [µM]	inhibition at 50 µM (NdhC [3]) [%]	Effect on pH gradient (ACMA fluorescence) [4, 10]	Effect on membrane potential (Oxonol VI fluorescence) [5, 11]	Inhibition of NADH-dependent oxygen consumption (S. aureus membranes)	further results
N#CC(C#N)=NNc1cccc(Cl)c1 [CCCP]	–	–	–	–	–	–	Effect on membrane potential (DisC3(5) fluorescence) (S. aureus cells; 1 μM CCCP, validation control): rapid collapse of the membrane potential
CN(C)CCCN1c2ccccc2Sc2ccc(Cl)cc21 [CPZ, Chlorpromazine]	170 ± 15 (≈ 54.2 µg/mL)	90 to 125	73 ± 8	–	–	–	–
C(=NC1CCCCC1)=NC1CCCCC1 [DCCD]	–	–	–	collapse of the pH gradient	–	–	–
CC(C)(C)c1cc(C=C(C#N)C#N)cc(C(C)(C)C)c1O [SF6847]	–	–	–	collapse of the pH gradient	dissipation of the membrane potential	–	–
CN1CCN(CCCN2c3ccccc3Sc3ccc(C(F)(F)F)cc32)CC1 [TPZ, Trifluoperazine]	70 ± 10 (≈ 28.5 µg/mL)	40 to 60	54 ± 6	–	–	fully inhibited	NADH-driven respiration in presence of 50 μM TPZ (S. aureus membranes; 50 μM TPZ, uninhibited activity 659 ± 28): 8 ± 1 μmole O2 mg^-1 protein s^-1; IC50 (S. aureus membranes; read-out: IC50, respiration of S. aureus membranes, NADH as electron donor): 18.5 ± 3 µM; inhibition at 50 µM (NdhF [6]): 0%; inhibition at 50 µM (NdhF [7]): 0%; inhibition at 50 µM (NdhC [8]): 80 ± 10%
CSc1ccc2c(c1)N(CCC1CCCCN1C)c1ccccc1S2 (stereo not shown) [TZ, Thioridazine]	70 ± 9 (≈ 25.9 µg/mL)	40 to 60	–	–	dissipation of the membrane potential	fully inhibited	Effect on membrane potential (Oxonol VI fluorescence) ([5]; 10 μM TZ): completely dissipated; Effect on membrane potential (DisC3(5) fluorescence) (S. aureus cells; 50 μM TZ): rapid collapse of the membrane potential; Effect on membrane potential (DisC3(5) fluorescence) (S. aureus cells; different TZ concentrations, immediate, concentration-dependent (Figure 3A)): collapse of the membrane potential; Effect on pH gradient (ACMA fluorescence) ([4]; 3 μM TZ, gradient generated by the ATPase or by succinate-driven respiration): completely collapse the pH gradient; Uncoupler activity [9]: weak uncoupler of oxidative phosphorylation
